How the values were obtained:
coliforms = experiment: Total coliforms (Petrifilm) in raw milk under CO2 pressure (Example 1); format: cell-based; conditions: 689 kPa CO2 pressure, 4° C.
Method: Milk samples were mixed and 5 ml of milk added into the treatment and control vessels. The treatment vessel was connected to the apparatus and the control vessel closed off. Both vessels were placed in the water bath. When the desired temperatures were attained in both treatment and control vessels, CO2 was introduced through the bottom of the treatment vessel until the set pressure was reached. The CO2 pressure was maintained throughout the test period. When the desired time was reached, the CO2 inlet was turned off, the pressure release valve on the outlet line opened, and the pressure released in under one minute. After depressurization, the treatment and control vessels were removed from the water bath and their external surfaces were wiped dry, sanitized with 95% ethanol, detached from the apparatus and transferred into sterile containers for dilution and plating.
The progression of these counts (total, Coliform/E. coli and thermoduric bacteria) in the treatment and control samples was tracked by conducting checks on the total aerobic counts (SPC) on treatment days 4 and 6. Based on the levels of total counts on days 4 and 6, analyses of total coli forms/E. coli and thermoduric bacteria after day 6 were conducted either in 1-day or 2-day intervals. The control sample final count was measured on days 4 and 6.
Initial total, coliform, and thermoduric counts were each determined for control and treated samples. Thermoduric organisms were enumerated by the laboratory pasteurization count (LPC) method described in the Standard Methods for the Examination of Dairy Products (Houghtby et al., 1992). The 3M Petri film count plate (3M Microbiology Products, St. Paul, Minn.) was used to enumerate total coli forms and Escherichia coli in the raw, treated and control milk samples.

[1] = test system: gram-negative lactose fermenting bacteria; experiment: Gram-negative lactose fermenting bacteria on MacConkey agar, raw milk under CO2 pressure (Example 1); format: cell-based; conditions: 6.1° C., 4 days
Method: Raw milk from the T&R Center was monitored for changes in aerobic bacteria, gram-negative bacteria and total Lactobacillus spp. as follows: CO2 pressures of 0 (control), 68, 172, 344, 516 and 689 kPa, at 6.1° C. for 4-days. SPC, gram-negative bacteria and total Lactobacillus spp. were enumerated before (day 0) and after (day 4) treatment. Gram negative bacteria were enumerated on MacConkey Agar (Difco Manual, Becton Dickinson & Co., Sparks, Md.), a selective and differential media which can be used to discriminate between lactose fermenting and non-lactose fermenting gram-negative bacteria. Use of this media allows a one-step method of obtaining estimates of both coliform and non-coliform gram negative bacteria. Coliform bacteria may include species of Escherichia, Klebsiella and Enterobacter, potential pathogens and/or spoilage organisms. Non-coliform gram negative bacteria may include spoilage organisms such as pseudomonads or potential pathogens such as Salmonella spp. or Shigella spp. […]
For all microbiological assays, milk sample aliquots of 1 ml were used in dilution series. […] Representative and distinctive suspect colonies were gram stained, and confirmed gram positive bacilli colonies were counted as an estimate of total Lactobacillus spp.

Lactobacillus plantarum = conditions: CO2 pressures of 13 MPa, 30° C., 30 minutes (Hong and Pyun, 1999); cited from earlier work

O=C=O [CO2, carbon dioxide]
Coliforms counts, Treated, 4 Days (coliforms; 4 days): 1.0 * 10^2h cfu/ml | Coliforms counts, Treated, 6 Days (coliforms; 6 days): 1.0 * 10^2h cfu/ml | Coliforms counts, Treated, 8 Days (coliforms; 8 days): 9.3 * 10^1h cfu/ml | Coliforms counts, Treated, 9 Days (coliforms; 9 days): 9.0 * 10^1h cfu/ml | levels of gram-negative fermenters compared to untreated controls ([1]; 68 to 689 kPa): reduced at all pressures | decrease of gram-negative lactose fermenting bacteria compared to initial counts ([1]; 689 kPa): 0.80 log10 cfu/ml | reductions in populations of Lactobacillus plantarum (Lactobacillus plantarum): more than 6 logs

Source: US8563067B2, “Extended shelf life and bulk transport of perishable organic liquids with low pressure carbon dioxide” (Cornell Research Foundation, Inc., priority 2004, dated 2013)
